The results in this text go back to patent US12171755B2, “PAPD5 inhibitors and methods of use thereof” (Children's Medical Center Corporation, priority 2017, dated 2024).

Each structure is given as a SMILES string.

The target of this assay is T1, PAPD5 (Homo sapiens, UniProt Q8NDF8).
T1 construct: made in house
The assay can be described thus: High-throughput luminescence (KinaseGlo) RNA polyadenylation assay, ATP utilization by recombinant PAPD5. The format is biochemical. To be noted: Table 4 (entries of Table 5), ratio of luminescence with inhibitor to DMSO; for Fold-change determined at compound concentration 33 μM: 33 μM compound; for Fold-change determined at compound concentration 100 μM: 100 μM compound, higher = higher inhibition. On the procedure:
Optimal conditions for an in vitro RNA polyadenylation assay using recombinant PAPD5, ATP and an oligonucleotide substrate were identified. The HTS assay involved ATP utilization by PAPD5, which reads out as a decreased luminescence signal produced by luciferase (KinaseGlo, Promega, Madison, WI).
100 nl of compound dissolved in DMSO was transferred to each well of the assay plate via pin transfer. For negative control wells, DMSO alone was added. Plates were gently vortexed for 5 seconds, then incubated for 2 hours at room temperature.
After 2 hours, 5 ul of luciferase (Promega KinaseGlo, Madison, WI) was added using a MultiDrop Combi (Thermo Fisher Scientific, Waltham, MA). The mixture was gently vortexed for 5 seconds and incubated for 10 minutes at room temperature. Plates were spun for 1 minute prior to luminescence measurements. Luminescent measurements were quantitated using a PerkinElmer EnVision™ plate reader.
˜100,000 compounds from various libraries at the ICCB-Longwood were screened in this manner in duplicate.
The fold change was the ratio of luminescence from a sample with inhibitor compared to that with DMSO. Thus, a higher number indicates higher inhibition.
(In general: Kinase-Glo reads ATP consumption through a luciferase reaction.)

T1 sequence (Q8NDF8 68-698 isoform Q8NDF8-5): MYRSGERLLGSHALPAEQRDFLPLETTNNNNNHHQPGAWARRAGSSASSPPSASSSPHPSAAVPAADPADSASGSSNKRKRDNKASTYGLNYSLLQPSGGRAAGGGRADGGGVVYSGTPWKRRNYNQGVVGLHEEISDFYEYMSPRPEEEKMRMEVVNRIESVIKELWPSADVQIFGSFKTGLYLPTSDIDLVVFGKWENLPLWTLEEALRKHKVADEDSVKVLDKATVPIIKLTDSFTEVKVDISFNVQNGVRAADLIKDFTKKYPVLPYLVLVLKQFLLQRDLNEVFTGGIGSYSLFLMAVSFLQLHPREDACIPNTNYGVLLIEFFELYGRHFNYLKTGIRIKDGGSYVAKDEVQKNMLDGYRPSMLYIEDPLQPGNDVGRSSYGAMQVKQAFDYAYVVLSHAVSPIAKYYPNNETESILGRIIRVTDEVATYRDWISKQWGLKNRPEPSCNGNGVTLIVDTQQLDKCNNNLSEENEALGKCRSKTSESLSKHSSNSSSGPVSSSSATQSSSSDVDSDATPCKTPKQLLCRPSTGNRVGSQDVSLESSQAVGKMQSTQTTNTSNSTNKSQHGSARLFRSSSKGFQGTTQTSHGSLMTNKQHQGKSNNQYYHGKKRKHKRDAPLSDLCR

In the case of `Cc1cc(C)c2nc(C)cc(C(=O)O)c2c1` [Entry 85, 2,6,8-trimethylquinoline-4-carboxylic acid], the “Fold-change determined at compound concentration 33 μM” value is 1.061 and the “Fold-change determined at compound concentration 100 μM” value is given as 1.252.
On to `Cc1ccc2cccc(NC(=O)c3cccnc3)c2n1` [Entry 86, N-(2-methylquinolin-8-yl)nicotinamide], for which the “Fold-change determined at compound concentration 33 μM” value was 1.085 and the “Fold-change determined at compound concentration 100 μM” value turned out to be 1.233.
For `COc1ccc(NC(=O)c2ccc3c(SCC(=O)O)c4c(nc3c2)CCC4)c(OC)c1` [Entry 87, 2-[[6-[(2,4-dimethoxyphenyl)carbamoyl]-2,3-dihydro-1H-cyclopenta[b]quinolin-9-yl]sulfanyl]acetic acid], in that order: 1.097 and 1.253.
For `COc1ccc(NC(=O)c2ccc3c(SCC(=O)O)c4c(nc3c2)CCCC4)c(OC)c1` [Entry 88, [(6-{[(2,4-dimethoxyphenyl)amino]carbonyl}-1,2,3,4-tetrahydroacridin-9-yl)thio]acetic acid], the “Fold-change determined at compound concentration 33 μM” value was found to be 1.082 and the “Fold-change determined at compound concentration 100 μM” value stood at 1.276.
For `COCCNC(=O)CSc1c2c(nc3cc(Cl)ccc13)CCCC2` [Entry 89, 2-[(6-chloro-1,2,3,4-tetrahydroacridin-9-yl)sulfanyl]-N-(2-methoxyethyl)acetamide], in that order: 1.098 and 1.211.
For `CCCNC(=O)CSc1c2c(nc3ccc(Cl)cc13)CCCC2` [Entry 90, 2-[(7-chloro-1,2,3,4-tetrahydroacridin-9-yl)sulfanyl]-N-propylacetamide] the same measures were 1.105 and 1.253.
`COc1c2[nH]c3occc3c(OC)c-2ccc1=O` [Entry 91, 4,8-dimethoxy-9H-furo[2,3-b]quinolin-7-one]: the “Fold-change determined at compound concentration 33 μM” value is 1.197 and the “Fold-change determined at compound concentration 100 μM” value turned out to be 1.537.
Turning to `COc1c2ccoc2nc2c(OC)cccc12` [Entry 92, 4,8-dimethoxyfuro[2,3-b]quinoline], the “Fold-change determined at compound concentration 33 μM” value turned out to be 1.175 and the “Fold-change determined at compound concentration 100 μM” value is 1.478.
Consider `Cc1ccc2cc(-c3noc(CCC(=O)Nc4nccs4)n3)c(O)nc2c1` [Entry 94, 3-[3-(2-hydroxy-7-methylquinolin-3-yl)-1,2,4-oxadiazol-5-yl]-N-1,3-thiazol-2-ylpropanamide], for which the “Fold-change determined at compound concentration 33 μM” value stood at 1.294 and the “Fold-change determined at compound concentration 100 μM” value was 1.926.
For `Cc1ccc(NC(=O)c2ccc3c(O)c(S(=O)(=O)c4ccc(Cl)cc4)c(=O)[nH]c3c2)cc1` [Entry 95, 3-(4-chlorophenyl)sulfonyl-4-hydroxy-N-(4-methylphenyl)-2-oxo-1H-quinoline-7-carboxamide], in that order: 1.156 and 1.228.
For `Cc1ccc(C)c(NC(=O)c2ccc3c(O)c(S(=O)(=O)c4ccc(Cl)cc4)c(O)nc3c2)c1` [Entry 96, (Z)-3-((4-chlorophenyl)sulfonyl)-N-(2,5-dimethylphenyl)-2,4-dihydroxyquinoline-7-carbimidic acid] the same measures were 1.184 and 1.23.
For `O=C(CSc1nc(=O)c2ccccc2[nH]1)NCc1nc2ccccc2[nH]1` [Entry 97, N-(1H-benzimidazol-2-ylmethyl)-2-[(4-oxo-1H-quinazolin-2-yl)sulfanyl]acetamide], the “Fold-change determined at compound concentration 33 μM” value is listed as 1.171 and the “Fold-change determined at compound concentration 100 μM” value is listed as 1.403.
For `O=C(O)C1Nc2ccc(Cl)cc2C2C=CCC12` (centres unmarked) [Entry 98, 8-Chloro-3a,4,5,9b-tetrahydro-3H-cyclopenta[c]quinoline-4-carboxylic acid], the “Fold-change determined at compound concentration 33 μM” value was determined as 1.97 and the “Fold-change determined at compound concentration 100 μM” value is recorded as 2.765.
For `COc1ccc(Br)cc1[C@@H]1Nc2ccc(C(=O)O)cc2[C@@H]2C=CC[C@@H]21` [Entry 99, (3aS,4R,9bR)-4-(5-bromo-2-methoxyphenyl)-3a,4,5,9b-tetrahydro-3H-cyclopenta[c]quinoline-8-carboxylic acid], in that order: 1.233 and 1.91.
For `COc1ccc(NS(=O)(=O)c2ccc3c(c2)[C@H]2C=CC[C@H]2[C@@H](c2ccc(C(=O)O)cc2)N3)cc1` [Entry 100, 4-[(3aR,4S,9bS)-8-[(4-methoxyphenyl)sulfamoyl]-3a,4,5,9b-tetrahydro-3H-cyclopenta[c]quinolin-4-yl]benzoic acid], in that order: 1.315 and 2.297.
`CCOc1cccc2c1N[C@@H](c1ccc(C(=O)O)cc1)[C@H]1CC=C[C@@H]21` [Entry 101, 4-[(3aS,4R,9bR)-6-ethoxy-3a,4,5,9b-tetrahydro-3H-cyclopenta[c]quinolin-4-yl]benzoic acid]: the “Fold-change determined at compound concentration 33 μM” value stood at 1.265 and the “Fold-change determined at compound concentration 100 μM” value stood at 2.042.
For `Cc1cc(C)c2c(=O)cc(CSc3nnc(-c4ccccc4)n3C)[nH]c2c1` [Entry 102, 5,7-dimethyl-2-[(4-methyl-5-phenyl-1,2,4-triazol-3-yl)sulfanylmethyl]-1H-quinolin-4-one], in that order: 1.066 and 1.268.
On to `CCn1cc(C(=O)O)c(=O)c2cc(F)c(N3CCN(C)CC3)cc21` [Entry 103, 1-ethyl-6-fluoro-7-(4-methylpiperazin-1-yl)-4-oxo-1,4-dihydroquinoline-3-carboxylic acid], for which the “Fold-change determined at compound concentration 33 μM” value was 1.04 and the “Fold-change determined at compound concentration 100 μM” value turned out to be 1.218.
For `O=c1c(S(=O)(=O)c2cccc(F)c2)c[nH]c2c(F)c(Cl)ccc12` [Entry 104, 7-chloro-8-fluoro-3-(3-fluorophenyl)sulfonyl-1H-quinolin-4-one], in that order: 1.048 and 1.235.
With `O=c1c(S(=O)(=O)c2cccc(F)c2)c[nH]c2c(F)ccc(Cl)c12` [Entry 105, 5-chloro-8-fluoro-3-(3-fluorophenyl)sulfonyl-1H-quinolin-4-one], the “Fold-change determined at compound concentration 33 μM” value is 1.16 and the “Fold-change determined at compound concentration 100 μM” value was determined as 1.333.
On to `Cc1cc(C)c2c(=O)cc(CSc3nnc(-c4cccc(F)c4)n3C)[nH]c2c1` [Entry 106, 2-[[5-(3-fluorophenyl)-4-methyl-1,2,4-triazol-3-yl]sulfanylmethyl]-5,7-dimethyl-1H-quinolin-4-one], for which the “Fold-change determined at compound concentration 33 μM” value was determined as 1.218 and the “Fold-change determined at compound concentration 100 μM” value is 1.522.
As to `Cc1ccc2c(=O)cc(CSc3ncn[nH]3)[nH]c2c1C` [Entry 107, 7,8-dimethyl-2-(1H-1,2,4-triazol-5-ylsulfanylmethyl)-1H-quinolin-4-one], the “Fold-change determined at compound concentration 33 μM” value came out at 1.319 and the “Fold-change determined at compound concentration 100 μM” value was found to be 1.883.
Turning to `CN(C)S(=O)(=O)c1ccc2c(c1)c(C(=O)n1ccnc1)cn2C` [Entry 108, 3-(I-Imidazole-1-carbonyl)-N,N,1-trimethylindole-5-sulfonamide], the “Fold-change determined at compound concentration 33 μM” value was 1.256 and the “Fold-change determined at compound concentration 100 μM” value was determined as 1.547.
For `COc1ccc(OC)c(NC(=O)Cc2c(C(=O)O)[nH]c3ccc(Cl)cc23)c1` [Entry 109, 5-chloro-3-[2-(2,5-dimethoxyanilino)-2-oxoethyl]-1H-indole-2-carboxylic acid], in that order: 1.076 and 1.231.
For `CCc1ccccc1NC(=O)Cc1c(C(=O)O)[nH]c2ccc(Cl)cc12` [Entry 110, 5-chloro-3-[2-(2-ethylanilino)-2-oxoethyl]-1H-indole-2-carboxylic acid], in that order: 1.126 and 1.298.
Turning to `Cc1nc[nH]c1CN1CCc2c(c3ccccc3n2C)C1=O` [Entry 111, 5-methyl-2-((4-methyl-1H-imidazol-5-yl)methyl)-2,3,4,5-tetrahydro-1H-pyrido[4,3-b]indol-1-one], the “Fold-change determined at compound concentration 33 μM” value is recorded as 1.78 and the “Fold-change determined at compound concentration 100 μM” value amounted to 2.308.
For `CC1=NCCc2c1[nH]c1ccccc21` [Entry 113, 1-Methyl-4,9-dihydro-3H-beta-carboline], in that order: 1.202 and 1.674.
On to `COc1ccc2c(c1)[nH]c1c(C)nccc12` [Entry 114, 7-Methoxy-1-methyl-9H-pyrido[3,4-b]indole], for which the “Fold-change determined at compound concentration 33 μM” value worked out at 1.1 and the “Fold-change determined at compound concentration 100 μM” value is reported as 1.342.
